Columns and labels:
[1] = target: T1, M1 muscarinic receptor (Homo sapiens, UniProt P11229); assay: Functional mobilization of intracellular calcium (FLIPR) in M1-CHO cells; type: cell-based; details: Table 4; for Emax: 100% efficacy is the maximum response obtained with the Carbachol control; for M1 Activity: modulating M1 receptor
T1 construct: expressed in transfected cells; host or cells: CHO (M1-CHO)
T1 sequence (P11229 1-460): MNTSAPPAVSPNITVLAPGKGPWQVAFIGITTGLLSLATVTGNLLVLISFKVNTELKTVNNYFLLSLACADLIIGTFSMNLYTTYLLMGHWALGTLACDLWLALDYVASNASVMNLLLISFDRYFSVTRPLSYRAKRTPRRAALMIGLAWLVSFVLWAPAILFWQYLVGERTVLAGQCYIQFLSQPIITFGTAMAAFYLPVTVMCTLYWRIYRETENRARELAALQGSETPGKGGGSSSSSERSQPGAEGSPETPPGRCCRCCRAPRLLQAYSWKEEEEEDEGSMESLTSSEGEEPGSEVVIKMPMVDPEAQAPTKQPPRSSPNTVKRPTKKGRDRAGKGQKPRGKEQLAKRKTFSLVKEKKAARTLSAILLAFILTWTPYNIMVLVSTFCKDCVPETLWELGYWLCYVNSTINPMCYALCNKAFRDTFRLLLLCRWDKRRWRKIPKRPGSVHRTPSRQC
Outline: (§1)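 Intracellular calcium rise is measured by FLIPR fluorescence over 60 sec in CHO cells carrying human M1 or M4 receptors. Compounds are tested alone as agonists, or pre-incubated 15 min (or co-applied) ahead of carbachol at its EC80 to detect inhibition.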

[2] = target: T2, M4 muscarinic receptor (Homo sapiens, UniProt P08173); assay: Functional mobilization of intracellular calcium (FLIPR) in M4-CHO cells; type: cell-based; details: Table 4; for Emax: 100% efficacy is the maximum response obtained with the Carbachol control; for M4 Activity: modulating M4 receptor
T2 construct: expressed in transfected cells; host or cells: CHO (M4-CHO)
T2 sequence (P08173 1-479): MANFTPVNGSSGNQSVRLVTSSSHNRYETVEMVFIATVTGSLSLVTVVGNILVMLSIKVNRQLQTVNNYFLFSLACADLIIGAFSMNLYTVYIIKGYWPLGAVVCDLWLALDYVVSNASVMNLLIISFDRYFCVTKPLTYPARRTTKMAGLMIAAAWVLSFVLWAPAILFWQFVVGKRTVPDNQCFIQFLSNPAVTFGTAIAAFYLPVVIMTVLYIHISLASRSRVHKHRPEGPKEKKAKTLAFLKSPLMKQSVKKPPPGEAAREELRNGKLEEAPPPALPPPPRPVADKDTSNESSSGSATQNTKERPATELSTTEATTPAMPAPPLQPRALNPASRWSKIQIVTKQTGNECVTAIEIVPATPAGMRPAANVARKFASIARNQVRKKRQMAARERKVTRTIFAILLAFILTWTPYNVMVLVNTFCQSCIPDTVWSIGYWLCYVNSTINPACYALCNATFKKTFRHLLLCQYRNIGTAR
Outline: as §1

SMILES	Emax [1] [%]	M1 Activity [1]	Emax [2] [%]	M4 Activity [2]
CCOC(=O)N1C2CCC1CC(N1CCC3(CC1)CN(C(C)=O)c1ccc(OC(F)(F)F)cc13)C2 (stereo not drawn) [compound 466]	25 to 100	xxx (activity was measured to be less than 2.0 μM)	25 to 100	xxx (activity was measured to be less than 2.0 μM)
CCOC(=O)N1CCC(N2CCC3(CC2)CN(C(C)=O)c2c(-c4cccc(OC)c4)cccc23)CC1 [compound 467]	25 to 100	xx (activity was measured to be between 2.0 μM and 5.0 μM)	25 to 100	xx (activity was measured to be between 2.0 μM and 5.0 μM)
CN(C)C(=O)N[C@H]1CCC2(CCN(C3CC4CCC(C4)C3)CC2)c2ccccc21 (stereo partly drawn) [compound 468]	25 to 100	xx (activity was measured to be between 2.0 μM and 5.0 μM)	25 to 100	xxx (activity was measured to be less than 2.0 μM)
CCCN1CC2(CCN(C3CCN(C(=O)OCC)CC3)CC2)c2cc(F)ccc21 [compound 469]	25 to 100	xxx (activity was measured to be less than 2.0 μM)	25 to 100	xxx (activity was measured to be less than 2.0 μM)
Cc1ccc2c(c1)C(=O)CC21CCN(CC2C[C@H]3CC[C@H]2C3)CC1 (stereo partly drawn) [compound 470]	25 to 100	xx (activity was measured to be between 2.0 μM and 5.0 μM)	25 to 100	xx (activity was measured to be between 2.0 μM and 5.0 μM)
CC(=O)N1CC2(CCN(C3CCN(c4nc(C)cs4)CC3)CC2)c2ccccc21 [compound 471]	25 to 100	xx (activity was measured to be between 2.0 μM and 5.0 μM)	25 to 100	xx (activity was measured to be between 2.0 μM and 5.0 μM)
CCOC(=O)N1CCC(N2CCC3(CC2)CN(C2CCC(=O)CC2)c2ccccc23)CC1 [compound 472]	> 100	xxx (activity was measured to be less than 2.0 μM)	25 to 100	xxx (activity was measured to be less than 2.0 μM)
CCOC(=O)N1CCC(N2CCCC3(CC2)CN(C(C)=O)c2ccc(F)cc23)C1 (stereo not drawn) [compound 473]	25 to 100	x (activity was measured to be greater than 5.0 μM)	< 25	x (activity was measured to be greater than 5.0 μM)
COCCN1CCC(N2CCC3(CC2)CN(C(C)=O)c2ccc(F)cc23)CC1 [compound 474]	< 25	x (activity was measured to be greater than 5.0 μM)	< 25	x (activity was measured to be greater than 5.0 μM)
CC(=O)N1CC2(CCN(C3CC4CCC(C3)N4C(=O)OCC(C)(C)C)CC2)c2ccccc21 (stereo not drawn) [compound 476]	< 25	x (activity was measured to be greater than 5.0 μM)	< 25	x (activity was measured to be greater than 5.0 μM)
CCCCc1cncc(N2CCC(N3CCC4(CC3)CN(C(C)=O)c3ccccc34)CC2)n1 [compound 477]	< 25	x (activity was measured to be greater than 5.0 μM)	< 25	x (activity was measured to be greater than 5.0 μM)
CCCOC(=O)N1CC[C@@H](CN2CCC3(CC2)CN(C(C)=O)c2ccccc23)C1 [compound 478]	< 25	x (activity was measured to be greater than 5.0 μM)	< 25	x (activity was measured to be greater than 5.0 μM)
CC#CC(C)OC(=O)N1CC[C@@H](CN2CCC3(CC2)CN(C(=O)N(C)C)c2ccc(F)cc23)C1 (stereo partly drawn) [compound 479]	25 to 100	xxx (activity was measured to be less than 2.0 μM)	< 25	xxx (activity was measured to be less than 2.0 μM)
CC(=O)N[C@H]1CC2(CCN(CC(=O)N3CCOCC3)CC2)c2ccccc21 [compound 480]	< 25	x (activity was measured to be greater than 5.0 μM)	< 25	x (activity was measured to be greater than 5.0 μM)
CCC#CCOC(=O)N1CC[C@@H](CN2CCC3(CC2)CN(C(C)=O)c2ccccc23)C1 [compound 481]	25 to 100	xxx (activity was measured to be less than 2.0 μM)	25 to 100	xxx (activity was measured to be less than 2.0 μM)
CCOC(=O)N1CC[C@H](CN2CCC3(CC2)CN(C(C)=O)c2ccccc23)C1 [compound 482]	25 to 100	xxx (activity was measured to be less than 2.0 μM)	25 to 100	xxx (activity was measured to be less than 2.0 μM)
CC1(C)C(=O)c2ccccc2C12CCN([C@H]1C[C@@H]3CC[C@@H]1C3)CC2 [compound 483]	< 25	x (activity was measured to be greater than 5.0 μM)	< 25	x (activity was measured to be greater than 5.0 μM)
CCOC(=O)N1C2CCC1CC(N1CCC3(CCCc4ccccc43)CC1)C2 (stereo not drawn) [compound 484]	25 to 100	xxx (activity was measured to be less than 2.0 μM)	25 to 100	xxx (activity was measured to be less than 2.0 μM)
CC#CC(C)OC(=O)N1CC[C@H](CN2CCC3(CC2)CN(C(=O)N(C)C)c2ccc(F)cc23)C1 (stereo partly drawn) [compound 485]	25 to 100	xx (activity was measured to be between 2.0 μM and 5.0 μM)	< 25	xxx (activity was measured to be less than 2.0 μM)
CC(=O)N[C@@H]1CCC2(CCN(CC3CC4C=CC3C4)CC2)c2ccccc21 (stereo partly drawn) [compound 486]	< 25	x (activity was measured to be greater than 5.0 μM)	25 to 100	xxx (activity was measured to be less than 2.0 μM)
O=C(N[C@H]1CC2(CCN([C@@H]3C[C@H]4CC[C@@H]3C4)CC2)c2ccccc21)N1CCCC1 [compound 487]	< 25	x (activity was measured to be greater than 5.0 μM)	25 to 100	xxx (activity was measured to be less than 2.0 μM)
O=C(O)C1CC2(CCN(C3CCCCCC3)CC2)c2ccccc21 (stereo not drawn) [compound 488]	25 to 100	x (activity was measured to be greater than 5.0 μM)	25 to 100	x (activity was measured to be greater than 5.0 μM)
CC(=O)N1CC2(CCN(C3CCN(c4cncc(C)n4)CC3)CC2)c2ccccc21 [compound 489]	25 to 100	xxx (activity was measured to be less than 2.0 μM)	25 to 100	xxx (activity was measured to be less than 2.0 μM)
CCC(=O)N[C@H]1CC2(CCN([C@@H]3C[C@@H]4CC[C@@H]3C4)CC2)c2ccccc21 [compound 490]	25 to 100	x (activity was measured to be greater than 5.0 μM)	> 100	xxx (activity was measured to be less than 2.0 μM)

— patent US7786141B2 (Vertex Pharmaceuticals Incorporated, priority 2004, dated 2010)
